From ChEMBL document CHEMBL4402510, “Caprazamycins: Promising lead structures acting on a novel antibacterial target MraY” (Eur J Med Chem, 2019)
In brackets after ≈: the same amount, converted by molar mass.

Test system: Mycobacterium tuberculosis variant bovis
Assay: Antibacterial activity against Mycobacterium bovis after 20 hrs by NCCLS-based two-fold broth dilution method
Assay type: functional

Question: How did the MIC turn out when `CCCCc1ccc(NC(=O)C2=CCN(C)[C@@H]([C@H](O[C@@H]3O[C@H](CN)[C@@H](O)[C@H]3O)[C@H]3O[C@@H](n4ccc(=O)[nH]c4=O)[C@H](O)[C@@H]3O)C(=O)N2C)cc1` was run?
Answer: 3.13 µg/mL (≈ 4.54 µM)

Test system: Mycobacterium tuberculosis variant bovis
Assay: Antibacterial activity against Mycobacterium bovis
Assay type: functional

Question: `CO[C@@H]1[C@@H](OC)[C@H](C)O[C@@H](OC(=O)C[C@@H](C)CC(=O)O[C@@H](CCCCCCCCCCC(C)C)CC(=O)O[C@H]2CN(C)[C@@H]([C@H](O[C@@H]3O[C@H](CN)[C@@H](O)[C@H]3O)[C@H]3O[C@@H](n4ccc(=O)[nH]c4=O)[C@H](O)[C@@H]3O)C(=O)N(C)[C@@H]2C(=O)O)[C@@H]1OC` was tested. Which MIC did it give?
Answer: 3.13 µg/mL (≈ 2.73 µM)

Test system: Mycobacterium tuberculosis variant bovis
Assay: Antibacterial activity against Mycobacterium bovis Ravenel
Assay type: functional

Question: Which MIC does the source give for `CCCCCCCOc1ccc(NC(=O)C2=CCN(C)[C@@H]([C@H](O[C@@H]3O[C@H](CN)[C@@H](O)[C@H]3O)[C@H]3O[C@@H](n4ccc(=O)[nH]c4=O)[C@H](O)[C@@H]3O)C(=O)N2C)cc1` here?
Answer: 0.78 µg/mL (≈ 1.04 µM)

Question: How did the MIC turn out when `CCCCCCCCCCCCCCNC(=O)C1=CCN(C)[C@@H]([C@H](O[C@@H]2O[C@H](CN)[C@@H](O)[C@H]2O)[C@H]2O[C@@H](n3ccc(=O)[nH]c3=O)[C@H](O)[C@@H]2O)C(=O)N1C` was run?
Answer: 1.56 µg/mL (≈ 2.07 µM)

Question: With `CCCCCCCc1ccc(NC(=O)C2=CCN(C)[C@@H]([C@H](O[C@@H]3O[C@H](CN)[C@@H](O)[C@H]3O)[C@H]3O[C@@H](n4ccc(=O)[nH]c4=O)[C@H](O)[C@@H]3O)C(=O)N2C)cc1` as the compound, how does the MIC read?
Answer: 0.78 µg/mL (≈ 1.07 µM)

Question: Which MIC does the source give for `CCCCCNC(=O)C1=CCN(C)[C@@H]([C@H](O[C@@H]2O[C@H](CN)[C@@H](O)[C@H]2O)[C@H]2O[C@@H](n3ccc(=O)[nH]c3=O)[C@H](O)[C@@H]2O)C(=O)N1C` here?
Answer: 6.25 µg/mL (≈ 9.97 µM)

Question: Which MIC does the source give for `CCCCCCCCNC(=O)C1=CCN(C)[C@@H]([C@H](O[C@@H]2O[C@H](CN)[C@@H](O)[C@H]2O)[C@H]2O[C@@H](n3ccc(=O)[nH]c3=O)[C@H](O)[C@@H]2O)C(=O)N1C` here?
Answer: 1.56 µg/mL (≈ 2.33 µM)

Question: `CCCCc1ccc(NC(=O)C2=CCN[C@@H]([C@H](O[C@@H]3O[C@H](CN)[C@@H](O)[C@H]3O)[C@H]3O[C@@H](n4ccc(=O)[nH]c4=O)[C@H](O)[C@@H]3O)C(=O)N2C)cc1` was tested. Which MIC did it give?
Answer: 3.13 µg/mL (≈ 4.64 µM)

Question: For `CCCCCCCCCCCNC(=O)C1=CCN(C)[C@@H]([C@H](O[C@@H]2O[C@H](CN)[C@@H](O)[C@H]2O)[C@H]2O[C@@H](n3ccc(=O)[nH]c3=O)[C@H](O)[C@@H]2O)C(=O)N1C`, which MIC is on record?
Answer: 1.56 µg/mL (≈ 2.19 µM)

Question: For `CCc1ccc(NC(=O)C2=CCN(C)[C@@H]([C@H](O[C@@H]3O[C@H](CN)[C@@H](O)[C@H]3O)[C@H]3O[C@@H](n4ccc(=O)[nH]c4=O)[C@H](O)[C@@H]3O)C(=O)N2C)cc1`, which MIC is on record?
Answer: 1.56 µg/mL (≈ 2.36 µM)

Question: For `CCCCCCCCCCOC(=O)C1=CCN(C)[C@@H]([C@H](O[C@@H]2O[C@H](CN)[C@@H](O)[C@H]2O)[C@H]2O[C@@H](n3ccc(=O)[nH]c3=O)[C@H](O)[C@@H]2O)C(=O)N1C`, which MIC is on record?
Answer: 12.5 µg/mL (≈ 17.9 µM)

Question: How did the MIC turn out when `CCCCCCCCCCCCCCCCCCCCCNC(=O)C1=CCN(C)[C@@H]([C@H](O[C@@H]2O[C@H](CN)[C@@H](O)[C@H]2O)[C@H]2O[C@@H](n3ccc(=O)[nH]c3=O)[C@H](O)[C@@H]2O)C(=O)N1C` was run?
Answer: 1.56 µg/mL (≈ 1.83 µM)

Question: With `CCCCCCCCCCCCCCCCNC(=O)C1=CCN(C)[C@@H]([C@H](O[C@@H]2O[C@H](CN)[C@@H](O)[C@H]2O)[C@H]2O[C@@H](n3ccc(=O)[nH]c3=O)[C@H](O)[C@@H]2O)C(=O)N1C` as the compound, how does the MIC read?
Answer: 3.13 µg/mL (≈ 4.01 µM)

Question: With `CCCCCCCCCCCCCCCCCCNC(=O)C1=CCN(C)[C@@H]([C@H](O[C@@H]2O[C@H](CN)[C@@H](O)[C@H]2O)[C@H]2O[C@@H](n3ccc(=O)[nH]c3=O)[C@H](O)[C@@H]2O)C(=O)N1C` as the compound, how does the MIC read?
Answer: 1.56 µg/mL (≈ 1.93 µM)

Question: Which MIC does the source give for `CCCCCCCCCNC(=O)C1=CCN(C)[C@@H]([C@H](O[C@@H]2O[C@H](CN)[C@@H](O)[C@H]2O)[C@H]2O[C@@H](n3ccc(=O)[nH]c3=O)[C@H](O)[C@@H]2O)C(=O)N1C` here?
Answer: 1.56 µg/mL (≈ 2.28 µM)

Question: With `CC/C=C/CCCCCCCCCCOC(=O)C1=CCN(C)[C@@H]([C@H](O[C@@H]2O[C@H](CN)[C@@H](O)[C@H]2O)[C@H]2O[C@@H](n3ccc(=O)[nH]c3=O)[C@H](O)[C@@H]2O)C(=O)N1C` as the compound, how does the MIC read?
Answer: 6.25 µg/mL (≈ 8.31 µM)

Question: `CCCCOc1ccc(NC(=O)C2=CCN(C)[C@@H]([C@H](O[C@@H]3O[C@H](CN)[C@@H](O)[C@H]3O)[C@H]3O[C@@H](n4ccc(=O)[nH]c4=O)[C@H](O)[C@@H]3O)C(=O)N2C)cc1` was tested. Which MIC did it give?
Answer: 3.13 µg/mL (≈ 4.44 µM)

Question: How did the MIC turn out when `CCCCCCCCCCCCCCCCCCOC(=O)C1=CCN(C)[C@@H]([C@H](O[C@@H]2O[C@H](CN)[C@@H](O)[C@H]2O)[C@H]2O[C@@H](n3ccc(=O)[nH]c3=O)[C@H](O)[C@@H]2O)C(=O)N1C` was run?
Answer: 3.13 µg/mL (≈ 3.86 µM)

Question: How did the MIC turn out when `CCCCCCCCCCCCNC(=O)C1=CCN(C)[C@@H]([C@H](O[C@@H]2O[C@H](CN)[C@@H](O)[C@H]2O)[C@H]2O[C@@H](n3ccc(=O)[nH]c3=O)[C@H](O)[C@@H]2O)C(=O)N1C` was run?
Answer: 1.56 µg/mL (≈ 2.15 µM)

Question: Which MIC does the source give for `CCCCCCCCCCCCCCCNC(=O)C1=CCN(C)[C@@H]([C@H](O[C@@H]2O[C@H](CN)[C@@H](O)[C@H]2O)[C@H]2O[C@@H](n3ccc(=O)[nH]c3=O)[C@H](O)[C@@H]2O)C(=O)N1C` here?
Answer: 1.56 µg/mL (≈ 2.03 µM)

Question: Which MIC does the source give for `CCCCCCCCCCCCCCCCCCCCNC(=O)C1=CCN(C)[C@@H]([C@H](O[C@@H]2O[C@H](CN)[C@@H](O)[C@H]2O)[C@H]2O[C@@H](n3ccc(=O)[nH]c3=O)[C@H](O)[C@@H]2O)C(=O)N1C` here?
Answer: 0.78 µg/mL (≈ 0.932 µM)

Question: With `CCCCCCCCCCCCCCc1ccc(NC(=O)C2=CCN(C)[C@@H]([C@H](O[C@@H]3O[C@H](CN)[C@@H](O)[C@H]3O)[C@H]3O[C@@H](n4ccc(=O)[nH]c4=O)[C@H](O)[C@@H]3O)C(=O)N2C)cc1` as the compound, how does the MIC read?
Answer: 3.13 µg/mL (≈ 3.78 µM)

Question: For `CN1C(=O)[C@H]([C@H](O[C@@H]2O[C@H](CN)[C@@H](O)[C@H]2O)[C@H]2O[C@@H](n3ccc(=O)[nH]c3=O)[C@H](O)[C@@H]2O)N(C)CC=C1C(=O)Nc1ccc(C2CCCCC2)cc1`, which MIC is on record?
Answer: 1.56 µg/mL (≈ 2.18 µM)

Question: How did the MIC turn out when `C=CCCCCCCCCCOC(=O)C1=CCN(C)[C@@H]([C@H](O[C@@H]2O[C@H](CN)[C@@H](O)[C@H]2O)[C@H]2O[C@@H](n3ccc(=O)[nH]c3=O)[C@H](O)[C@@H]2O)C(=O)N1C` was run?
Answer: 12.5 µg/mL (≈ 17.6 µM)

Question: For `CN1C(=O)[C@H]([C@H](O[C@@H]2O[C@H](CN)[C@@H](O)[C@H]2O)[C@H]2O[C@@H](n3ccc(=O)[nH]c3=O)[C@H](O)[C@@H]2O)N(C)CC=C1C(=O)NC1CCCCCCCCCCC1`, which MIC is on record?
Answer: 1.56 µg/mL (≈ 2.16 µM)

Question: Which MIC does the source give for `CCCCCCCC/C=C/CCCCCCCCNC(=O)C1=CCN(C)[C@@H]([C@H](O[C@@H]2O[C@H](CN)[C@@H](O)[C@H]2O)[C@H]2O[C@@H](n3ccc(=O)[nH]c3=O)[C@H](O)[C@@H]2O)C(=O)N1C` here?
Answer: 3.13 µg/mL (≈ 3.88 µM)

Question: `CCCCCCCCCCNC(=O)C1=CCN(C)[C@@H]([C@H](O[C@@H]2O[C@H](CN)[C@@H](O)[C@H]2O)[C@H]2O[C@@H](n3ccc(=O)[nH]c3=O)[C@H](O)[C@@H]2O)C(=O)N1C` was tested. Which MIC did it give?
Answer: 1.56 µg/mL (≈ 2.24 µM)

Question: `CCCCCCCCCCCCCCCCCNC(=O)C1=CCN(C)[C@@H]([C@H](O[C@@H]2O[C@H](CN)[C@@H](O)[C@H]2O)[C@H]2O[C@@H](n3ccc(=O)[nH]c3=O)[C@H](O)[C@@H]2O)C(=O)N1C` was tested. Which MIC did it give?
Answer: 1.56 µg/mL (≈ 1.96 µM)

Question: How did the MIC turn out when `CCCCCCCCCCCCCOC(=O)C1=CCN(C)[C@@H]([C@H](O[C@@H]2O[C@H](CN)[C@@H](O)[C@H]2O)[C@H]2O[C@@H](n3ccc(=O)[nH]c3=O)[C@H](O)[C@@H]2O)C(=O)N1C` was run?
Answer: 3.13 µg/mL (≈ 4.23 µM)

Question: For `CCCCCCCNC(=O)C1=CCN(C)[C@@H]([C@H](O[C@@H]2O[C@H](CN)[C@@H](O)[C@H]2O)[C@H]2O[C@@H](n3ccc(=O)[nH]c3=O)[C@H](O)[C@@H]2O)C(=O)N1C`, which MIC is on record?
Answer: 1.56 µg/mL (≈ 2.38 µM)

Question: With `CCCCCCCCCCCCCCCCCCCNC(=O)C1=CCN(C)[C@@H]([C@H](O[C@@H]2O[C@H](CN)[C@@H](O)[C@H]2O)[C@H]2O[C@@H](n3ccc(=O)[nH]c3=O)[C@H](O)[C@@H]2O)C(=O)N1C` as the compound, how does the MIC read?
Answer: 1.56 µg/mL (≈ 1.9 µM)

Question: For `CCCCCCCCCCCCCNC(=O)C1=CCN(C)[C@@H]([C@H](O[C@@H]2O[C@H](CN)[C@@H](O)[C@H]2O)[C@H]2O[C@@H](n3ccc(=O)[nH]c3=O)[C@H](O)[C@@H]2O)C(=O)N1C`, which MIC is on record?
Answer: 1.56 µg/mL (≈ 2.11 µM)

Question: How did the MIC turn out when `CCCCCCc1ccc(NC(=O)C2=CCN(C)[C@@H]([C@H](O[C@@H]3O[C@H](CN)[C@@H](O)[C@H]3O)[C@H]3O[C@@H](n4ccc(=O)[nH]c4=O)[C@H](O)[C@@H]3O)C(=O)N2C)cc1` was run?
Answer: 0.2 µg/mL (≈ 0.279 µM)

Question: For `CCCCCCNC(=O)C1=CCN(C)[C@@H]([C@H](O[C@@H]2O[C@H](CN)[C@@H](O)[C@H]2O)[C@H]2O[C@@H](n3ccc(=O)[nH]c3=O)[C@H](O)[C@@H]2O)C(=O)N1C`, which MIC is on record?
Answer: 3.13 µg/mL (≈ 4.89 µM)
